Counter-ions that a name gives are not always drawn. Marks after values point to notes of the source that are not given here.
Experiments:
Type in all cases: physicochemical
[1] = Thermostability under stress conditions (storage at 100 °C for one month), HPLC
Protocol: Sample S was prepared according to the present invention, as described in Example 3 above. Sample M1 was prepared according to Example 1 of WO 2012/163508 A1, as described in Example 7 above. Finally, Sample M2 was prepared according to Example 2 of WO 2012/163508 A1, as described in Example 7 above.
The samples were exposed to a temperature of 100° C. for the time period (in weeks) indicated. The testing was performed as described in the ICH Guideline Q1A (R2) (cf. above). The amount of the degradation product (i.e. doxorubicinone) produced as well as those of various impurities (i.e., doxorubicin and four different impurities of yet unknown identity; all given in % (w/w); “n.d.”=not determined) was determined by HPCL analysis (“LT”=less than).

[2] = Particle size distribution by laser diffraction analysis (Mastersizer 2000); details: wet laser diffraction in acetone; listed as Sample 2, hydrochloride
Protocol: Laser diffraction analysis was performed in form of wet laser diffraction in acetone: 1750 rpm, 3×20 s cycle time, 60 s background time, without sonication, and 5 min stirring time using a Mastersizer 2000 Particle Size Analyzer (Malvern Instruments Ltd., Malvern, UK) according to the manufacturer's instructions.

[3] = Thermostability on storage at 25, 40 and 100 °C per ICH Q1A (R2), HPLC
Protocol: HPLC and GC analyses were performed according to standard protocols.
The testing was performed as described in the ICH guidelines (cf. inter alia ICH Guideline Q1A (R2)).

[4] = Hygroscopic capacity: water content by Karl-Fischer titration after exposure to temperature and relative humidity; details: 25 or 40 °C, 40-90% rh, up to 15 days
Protocol: Coulometric Karl-Fischer titration (KFT; for determining the water content) was performed with an external drying oven (Metrohm 707 KF; operated at 140° C. with N2 purge). The samples were precisely weighed on an analytical balance (10^−5 g).
The testing was performed as described in the ICH guidelines.

[5] = 25 °C, 12 months, hydrochloride
[6] = 25 °C, 24 months, hydrochloride
[7] = 100 °C, 0 months, hydrochloride

Structure (SMILES): COc1cccc2c1C(=O)c1c(O)c3c(c(O)c1C2=O)C[C@@](O)(C(=O)CO)C[C@@H]3O[C@H]1C[C@H](N)[C@H](O)[C@H](C)O1 [Example M2, epirubicin hydrochloride]
- Doxorubicin (NMT 1%) ([1]; 0 weeks): 0.29 % (w/w)
- Doxorubicinone (Aglycone) (NMT 1%) ([1]; 0 weeks): < 0.05 % (w/w)
- Total Impurities (NMT 2%) ([1]; 0 weeks): 0.30 % (w/w)
- Doxorubicin (NMT 1%) ([1]; 1 week, hydrochloride): 0.27 % (w/w)
- Doxorubicinone (Aglycone) (NMT 1%) ([1]; 1 week, hydrochloride): 0.54 % (w/w)
- Total Impurities (NMT 2%) ([1]; 1 week, hydrochloride): 1.30 % (w/w)
- Unknown impurity RRT 1.2 (NMT 0.15%) ([1]; 1 week, hydrochloride): 0.12 % (w/w)
- Unknown impurity RRT 1.6 (NMT 0.15%) ([1]; 1 week, hydrochloride): 0.12 % (w/w)
- Unknown impurity RRT 1.7 (NMT 0.15%) ([1]; 1 week, hydrochloride): 0.14 % (w/w)
- Doxorubicin (NMT 1%) ([1]; 2 weeks): 0.32 % (w/w)
- Doxorubicinone (Aglycone) (NMT 1%) ([1]; 2 weeks, hydrochloride): 0.59 % (w/w)
- Total Impurities (NMT 2%) ([1]; 2 weeks, hydrochloride): 1.70 % (w/w)
- Unknown impurity RRT 1.1 (NMT 0.15%) ([1]; 2 weeks, hydrochloride): 0.14 % (w/w)
- Unknown impurity RRT 1.2 (NMT 0.15%) ([1]; 2 weeks, hydrochloride): 0.12 % (w/w)
- Unknown impurity RRT 1.6 (NMT 0.15%) ([1]; 2 weeks, hydrochloride): 0.21 % (w/w)
- Unknown impurity RRT 1.7 (NMT 0.15%) ([1]; 2 weeks, hydrochloride): 0.18 % (w/w)
- Doxorubicin (NMT 1%) ([1]; 3 weeks, hydrochloride): 0.32 % (w/w)
- Doxorubicinone (Aglycone) (NMT 1%) ([1]; 3 weeks, hydrochloride): 0.61 % (w/w)
- Total Impurities (NMT 2%) ([1]; 3 weeks, hydrochloride): 1.80 % (w/w)
- Unknown impurity RRT 1.1 (NMT 0.15%) ([1]; 3 weeks, hydrochloride): 0.13 % (w/w)
- Unknown impurity RRT 1.2 (NMT 0.15%) ([1]; 3 weeks, hydrochloride): 0.13 % (w/w)
- Unknown impurity RRT 1.6 (NMT 0.15%) ([1]; 3 weeks, hydrochloride): 0.27 % (w/w)
- Unknown impurity RRT 1.7 (NMT 0.15%) ([1]; 3 weeks, hydrochloride): 0.22 % (w/w)
- Doxorubicin (NMT 1%) ([1]; 4 weeks): 0.33 % (w/w)
- Doxorubicinone (Aglycone) (NMT 1%) ([1]; 4 weeks, hydrochloride): 0.60 % (w/w)
- Total Impurities (NMT 2%) ([1]; 4 weeks, hydrochloride): 2.1* % (w/w)
- Total amount of unknown impurities ([1]; 4 weeks, hydrochloride): 1.1 % (w/w)
- Unknown impurity RRT 1.1 (NMT 0.15%) ([1]; 4 weeks, hydrochloride): 0.21 % (w/w)
- Unknown impurity RRT 1.2 (NMT 0.15%) ([1]; 4 weeks, hydrochloride): 0.16 % (w/w)
- Unknown impurity RRT 1.6 (NMT 0.15%) ([1]; 4 weeks, hydrochloride): 0.39 % (w/w)
- Unknown impurity RRT 1.7 (NMT 0.15%) ([1]; 4 weeks, hydrochloride): 0.26 % (w/w)
- D(v/0.5), mean diameter based on the volume of the particles [2]: 9.04 μm

Structure (SMILES): COc1cccc2c1C(=O)c1c(O)c3c(c(O)c1C2=O)C[C@@](O)(C(=O)CO)C[C@@H]3O[C@H]1C[C@H](N)[C@H](O)[C@H](C)O1 [epirubicin hydrochloride monohydrate, epirubicin hydrochloride]
- Stability over a time period (overall shelf-life) ([3]; 25 °C): ≥ 5 years
- Doxorubicinone ([3]; 25 °C, 0 months): LT 0.05 % (w/w)
- Assay (intact epirubicin hydrochloride) ([3]; 25 °C, 0 months, hydrochloride): 99.2 % (w/w)
- Assay (intact epirubicin hydrochloride) ([3]; 25 °C, 1 month, hydrochloride): 99.4 % (w/w)
- Doxorubicinone ([3]; 25 °C, 1 month, hydrochloride): LT 0.05 % (w/w)
- Assay (intact epirubicin hydrochloride) ([3]; 25 °C, 3 months, hydrochloride): 99.4 % (w/w)
- Doxorubicinone ([3]; 25 °C, 3 months, hydrochloride): LT 0.05 % (w/w)
- Assay (intact epirubicin hydrochloride) ([3]; 25 °C, 6 months, hydrochloride): 99.2 % (w/w)
- Doxorubicinone ([3]; 25 °C, 6 months, hydrochloride): LT 0.05 % (w/w)
- Assay (intact epirubicin hydrochloride) [3, 5]: 99.0 % (w/w)
- Doxorubicinone [3, 5]: LT 0.05 % (w/w)
- Assay (intact epirubicin hydrochloride) [3, 6]: 99.4 % (w/w)
- Doxorubicinone [3, 6]: LT 0.05 % (w/w)
- Assay (intact epirubicin hydrochloride) ([3]; 25 °C, 36 months): 99.1 % (w/w)
- Doxorubicinone ([3]; 25 °C, 36 months): LT 0.05 % (w/w)
- Assay (intact epirubicin hydrochloride) ([3]; 25 °C, 48 months): 99.1 % (w/w)
- Doxorubicinone ([3]; 25 °C, 48 months): LT 0.05 % (w/w)
- Assay (intact epirubicin hydrochloride) ([3]; 25 °C, 60 months): 99.2 % (w/w)
- Doxorubicinone ([3]; 25 °C, 60 months): LT 0.05 % (w/w)
- Stability over a time period (thermostability) ([3]; 40 °C): ≥ 6 months
- Doxorubicinone ([3]; 40 °C, 0 months): LT 0.05 % (w/w)
- Assay (intact epirubicin hydrochloride) ([3]; 40 °C, 0 months, hydrochloride): 99.2 % (w/w)
- Assay (intact epirubicin hydrochloride) ([3]; 40 °C, 1 month, hydrochloride): 99.2 % (w/w)
- Doxorubicinone ([3]; 40 °C, 1 month, hydrochloride): LT 0.05 % (w/w)
- Assay (intact epirubicin hydrochloride) ([3]; 40 °C, 3 months, hydrochloride): 99.1 % (w/w)
- Doxorubicinone ([3]; 40 °C, 3 months, hydrochloride): LT 0.05 % (w/w)
- Assay (intact epirubicin hydrochloride) ([3]; 40 °C, 6 months, hydrochloride): 99.3 % (w/w)
- Doxorubicinone ([3]; 40 °C, 6 months, hydrochloride): LT 0.05* % (w/w)
- Doxorubicinone ([3]; 100 °C, 0 months): LT 0.05 % (w/w)
- Assay (intact epirubicin hydrochloride) [3, 7]: 99.2 % (w/w)
- Assay (intact epirubicin hydrochloride) ([3]; 100 °C, 1 month, hydrochloride): 98.3 % (w/w)
- Doxorubicinone ([3]; 100 °C, 1 month, hydrochloride): LT 0.5** % (w/w)
- Doxorubicinone ([3]; 100 °C, 1 month, listed as crystalline monohydrate of epirubicin hydrochloride, hydrochloride): less than 0.5 % (w/w)
- Hygroscopic capacity, in words [4]: does not exhibit any significant hygroscopic capacity

Structure (SMILES): COc1cccc2c1C(=O)c1c(O)c3c(c(O)c1C2=O)C[C@@](O)(C(=O)CO)C[C@@H]3O[C@H]1C[C@H](N)[C@H](O)[C@H](C)O1 [epirubicin hydrochloride trihydrate, epirubicin hydrochloride]
- Doxorubicinone ([3]; 25 °C, 0 months): LT 0.05 % (w/w)
- Assay (intact epirubicin hydrochloride) ([3]; 25 °C, 0 months, hydrochloride): 98.8 % (w/w)
- Assay (intact epirubicin hydrochloride) ([3]; 25 °C, 1 month, hydrochloride): 98.7 % (w/w)
- Doxorubicinone ([3]; 25 °C, 1 month, hydrochloride): 0.06 % (w/w)
- Assay (intact epirubicin hydrochloride) ([3]; 25 °C, 3 months, hydrochloride): 98.7 % (w/w)
- Doxorubicinone ([3]; 25 °C, 3 months, hydrochloride): 0.09 % (w/w)
- Assay (intact epirubicin hydrochloride) ([3]; 25 °C, 6 months, hydrochloride): 98.4 % (w/w)
- Doxorubicinone ([3]; 25 °C, 6 months, hydrochloride): 0.22 % (w/w)
- Assay (intact epirubicin hydrochloride) [3, 5]: 98.5 % (w/w)
- Doxorubicinone [3, 5]: 0.42 % (w/w)
- Assay (intact epirubicin hydrochloride) [3, 6]: 98.0 % (w/w)
- Doxorubicinone [3, 6]: 0.62 % (w/w)
- Doxorubicinone ([3]; 40 °C, 0 months): LT 0.05 % (w/w)
- Assay (intact epirubicin hydrochloride) ([3]; 40 °C, 0 months, hydrochloride): 98.8 % (w/w)
- Assay (intact epirubicin hydrochloride) ([3]; 40 °C, 1 month, hydrochloride): 98.4 % (w/w)
- Doxorubicinone ([3]; 40 °C, 1 month, hydrochloride): 0.22 % (w/w)
- Assay (intact epirubicin hydrochloride) ([3]; 40 °C, 3 months, hydrochloride): 98.2 % (w/w)
- Doxorubicinone ([3]; 40 °C, 3 months, hydrochloride): 0.45 % (w/w)
- Assay (intact epirubicin hydrochloride) ([3]; 40 °C, 6 months, hydrochloride): 98.0 % (w/w)
- Doxorubicinone ([3]; 40 °C, 6 months, hydrochloride): 0.78* % (w/w)
- Doxorubicinone ([3]; 100 °C, 0 months): LT 0.05 % (w/w)
- Assay (intact epirubicin hydrochloride) [3, 7]: 98.8 % (w/w)
- Assay (intact epirubicin hydrochloride) ([3]; 100 °C, 1 month, hydrochloride): 89.5 % (w/w)
- Doxorubicinone ([3]; 100 °C, 1 month, hydrochloride): 4.7** % (w/w)
- Degradation on storage, in words ([3]; within six months storage at 25 °C): significant degradation

Source: patent US20190382432A1 (Synbias Pharma AG, priority 2013, published 2019)
